Assay results reported in ChEMBL document CHEMBL5244269, “Improving metabolic stability and removing aldehyde oxidase liability in a 5-azaquinazoline series of IRAK4 inhibitors” (Bioorg Med Chem, 2020).
Blank lines part the entries; values can stand above or below the molecule they belong to.

Columns and labels:
[1] = Efflux ratio of apparent permeability basolateral to apical side over apical to basolateral side in human Caco-2 cells measured for 360 mins by liquid scintillation counting based analysis; assay type: ADME, cell-based
[2] = Clearance in human assessed as liver blood flow; assay type: ADME, tissue-based
[3] = Apparent permeability across apical to basolateral side in human Caco-2 cells measured for 360 mins by liquid scintillation counting based analysis; assay type: ADME, cell-based
[4] = molecular target: T1, Interleukin-1 receptor-associated kinase 4 (Homo sapiens, UniProt Q9NWZ3); assay: Inhibition of IRAK4 (unknown origin) phosphorylation by cell based assay
T1 sequence (Q9NWZ3 whole entry): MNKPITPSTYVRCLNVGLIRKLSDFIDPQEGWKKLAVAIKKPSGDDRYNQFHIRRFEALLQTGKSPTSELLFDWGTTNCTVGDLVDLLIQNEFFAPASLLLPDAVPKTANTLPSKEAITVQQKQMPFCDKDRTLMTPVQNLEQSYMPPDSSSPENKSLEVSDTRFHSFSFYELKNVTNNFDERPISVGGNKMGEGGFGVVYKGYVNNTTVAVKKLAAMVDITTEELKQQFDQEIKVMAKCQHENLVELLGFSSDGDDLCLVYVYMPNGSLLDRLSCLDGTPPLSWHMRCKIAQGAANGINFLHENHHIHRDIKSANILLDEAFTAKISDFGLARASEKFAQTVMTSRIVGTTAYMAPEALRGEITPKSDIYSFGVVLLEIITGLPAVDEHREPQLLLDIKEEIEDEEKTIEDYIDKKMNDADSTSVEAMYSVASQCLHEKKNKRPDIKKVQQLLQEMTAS

[5] = Clearance in human; assay type: ADME
[6] = molecular target: T1, Interleukin-1 receptor-associated kinase 4; assay: Inhibition of IRAK4 (unknown origin) in presence of ATP by enzymatic assay
SUD4 [7] = assay: Growth inhibition of human SU-DHL-4 cells at 0.17 uM incubated for 3 days (reference value: 2%); assay type: functional; conditions: SU-DHL-4, 72 h, time 3 day, read-out: GI
SUD4 [8] = assay: Growth inhibition of human SU-DHL-4 cells at 0.033 uM incubated for 3 days (reference value: -1%); assay type: functional; conditions: SU-DHL-4, 72 h, time 3 day, read-out: GI
OCI-Ly10 [9] = assay: Growth inhibition of human OCILY10 cells at 0.017 uM incubated for 3 days (reference value: -2%); assay type: functional; conditions: OCI-Ly10, 72 h, time 3 day, read-out: GI
OCI-Ly10 [10] = assay: Growth inhibition of human OCILY10 cells at 0.003 uM incubated for 3 days (Rvb= -3%); assay type: functional; conditions: OCI-Ly10, 72 h, time 3 day, read-out: GI
OCI-Ly10 [11] = assay: Growth inhibition of human OCILY10 cells at 0.017 uM incubated for 3 days (Rvb= -3%); assay type: functional; conditions: OCI-Ly10, 72 h, time 3 day, read-out: GI
OCI-Ly10 [12] = assay: Growth inhibition of human OCILY10 cells at 1.7 uM incubated for 3 days (Rvb= -3%); assay type: functional; conditions: OCI-Ly10, 72 h, time 3 day, read-out: GI
OCI-Ly10 [13] = assay: Growth inhibition of human OCILY10 cells at 0.33 uM incubated for 3 days (reference value: -2%); assay type: functional; conditions: OCI-Ly10, 72 h, time 3 day, read-out: GI
SUD4 [14] = assay: Growth inhibition of human SU-DHL-4 cells at 0.003 uM incubated for 3 days (reference value: -1%); assay type: functional; conditions: SU-DHL-4, 72 h, time 3 day, read-out: GI
SUD4 [15] = assay: Growth inhibition of human SU-DHL-4 cells at 0.017 uM incubated for 3 days (reference value: -1%); assay type: functional; conditions: SU-DHL-4, 72 h, time 3 day, read-out: GI
OCI-Ly10 [16] = assay: Growth inhibition of human OCILY10 cells at 0.033 uM incubated for 3 days (reference value: -2%); assay type: functional; conditions: OCI-Ly10, 72 h, time 3 day, read-out: GI
SUD4 [17] = assay: Growth inhibition of human SU-DHL-4 cells at 0.33 uM incubated for 3 days (reference value: 2%); assay type: functional; conditions: SU-DHL-4, 72 h, time 3 day, read-out: GI
OCI-Ly10 [18] = assay: Growth inhibition of human OCILY10 cells at 0.17 uM incubated for 3 days (Rvb= -2%); assay type: functional; conditions: OCI-Ly10, 72 h, time 3 day, read-out: GI
SUD4 [19] = assay: Growth inhibition of human SU-DHL-4 cells at 0.033 uM incubated for 3 days (reference value: 2%); assay type: functional; conditions: SU-DHL-4, 72 h, time 3 day, read-out: GI
OCI-Ly10 [20] = assay: Growth inhibition of human OCILY10 cells at 0.003 uM incubated for 3 days (reference value: -2%); assay type: functional; conditions: OCI-Ly10, 72 h, time 3 day, read-out: GI
SUD4 [21] = assay: Growth inhibition of human SU-DHL-4 cells at 0.003 uM incubated for 3 days (reference value: 2%); assay type: functional; conditions: SU-DHL-4, 72 h, time 3 day, read-out: GI
OCI-Ly10 [22] = assay: Growth inhibition of human OCILY10 cells at 0.033 uM incubated for 3 days (Rvb= -3%); assay type: functional; conditions: OCI-Ly10, 72 h, time 3 day, read-out: GI
SUD4 [23] = assay: Growth inhibition of human SU-DHL-4 cells at 0.33 uM incubated for 3 days (reference value: -1%); assay type: functional; conditions: SU-DHL-4, 72 h, time 3 day, read-out: GI
OCI-Ly10 [24] = assay: Growth inhibition of human OCILY10 cells at 3.3 uM incubated for 3 days (Rvb= -3%); assay type: functional; conditions: OCI-Ly10, 72 h, time 3 day, read-out: GI
SUD4 [25] = assay: Growth inhibition of human SU-DHL-4 cells at 0.017 uM incubated for 3 days (reference value: 2%); assay type: functional; conditions: SU-DHL-4, 72 h, time 3 day, read-out: GI
SUD4 [26] = assay: Growth inhibition of human SU-DHL-4 cells at 0.17 uM incubated for 3 days (reference value: -1%); assay type: functional; conditions: SU-DHL-4, 72 h, time 3 day, read-out: GI
[27] = Metabolic stability in human hepatocytes assessed as intrinsic clearance measured per 10^6 cells; assay type: ADME, cell-based, Hepatocyte; conditions: read-out: CLH
[28] = molecular target: High affinity nerve growth factor receptor (Homo sapiens, UniProt P04629); assay: Inhibition of TRKA (unknown origin) in presence of 400 uM ATP
High affinity nerve growth factor receptor, sequence (P04629 whole entry): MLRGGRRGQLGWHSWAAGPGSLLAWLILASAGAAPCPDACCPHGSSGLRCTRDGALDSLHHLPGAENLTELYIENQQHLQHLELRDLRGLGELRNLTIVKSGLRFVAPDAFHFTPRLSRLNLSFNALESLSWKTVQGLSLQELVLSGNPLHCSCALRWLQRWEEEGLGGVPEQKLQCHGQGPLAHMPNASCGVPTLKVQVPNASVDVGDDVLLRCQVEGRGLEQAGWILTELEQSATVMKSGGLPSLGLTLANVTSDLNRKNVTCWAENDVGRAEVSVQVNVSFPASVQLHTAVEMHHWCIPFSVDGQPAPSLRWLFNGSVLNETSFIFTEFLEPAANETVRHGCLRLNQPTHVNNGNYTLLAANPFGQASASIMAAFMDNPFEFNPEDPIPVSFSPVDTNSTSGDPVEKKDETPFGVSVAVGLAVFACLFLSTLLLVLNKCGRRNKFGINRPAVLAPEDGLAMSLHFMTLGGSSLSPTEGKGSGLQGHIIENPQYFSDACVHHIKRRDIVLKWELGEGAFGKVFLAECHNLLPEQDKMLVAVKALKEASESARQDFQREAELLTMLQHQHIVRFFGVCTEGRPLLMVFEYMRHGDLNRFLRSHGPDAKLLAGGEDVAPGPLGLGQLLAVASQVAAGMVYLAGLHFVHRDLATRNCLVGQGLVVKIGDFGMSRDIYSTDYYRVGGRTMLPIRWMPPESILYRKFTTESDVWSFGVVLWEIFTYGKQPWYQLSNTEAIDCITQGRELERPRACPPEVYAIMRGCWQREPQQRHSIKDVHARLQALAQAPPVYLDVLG

[29] = molecular target: T2, Receptor-type tyrosine-protein kinase FLT3 (Homo sapiens, UniProt P36888); assay: Inhibition of FLT3 (unknown origin) in presence of 600 uM ATP
T2 sequence (P36888 whole entry): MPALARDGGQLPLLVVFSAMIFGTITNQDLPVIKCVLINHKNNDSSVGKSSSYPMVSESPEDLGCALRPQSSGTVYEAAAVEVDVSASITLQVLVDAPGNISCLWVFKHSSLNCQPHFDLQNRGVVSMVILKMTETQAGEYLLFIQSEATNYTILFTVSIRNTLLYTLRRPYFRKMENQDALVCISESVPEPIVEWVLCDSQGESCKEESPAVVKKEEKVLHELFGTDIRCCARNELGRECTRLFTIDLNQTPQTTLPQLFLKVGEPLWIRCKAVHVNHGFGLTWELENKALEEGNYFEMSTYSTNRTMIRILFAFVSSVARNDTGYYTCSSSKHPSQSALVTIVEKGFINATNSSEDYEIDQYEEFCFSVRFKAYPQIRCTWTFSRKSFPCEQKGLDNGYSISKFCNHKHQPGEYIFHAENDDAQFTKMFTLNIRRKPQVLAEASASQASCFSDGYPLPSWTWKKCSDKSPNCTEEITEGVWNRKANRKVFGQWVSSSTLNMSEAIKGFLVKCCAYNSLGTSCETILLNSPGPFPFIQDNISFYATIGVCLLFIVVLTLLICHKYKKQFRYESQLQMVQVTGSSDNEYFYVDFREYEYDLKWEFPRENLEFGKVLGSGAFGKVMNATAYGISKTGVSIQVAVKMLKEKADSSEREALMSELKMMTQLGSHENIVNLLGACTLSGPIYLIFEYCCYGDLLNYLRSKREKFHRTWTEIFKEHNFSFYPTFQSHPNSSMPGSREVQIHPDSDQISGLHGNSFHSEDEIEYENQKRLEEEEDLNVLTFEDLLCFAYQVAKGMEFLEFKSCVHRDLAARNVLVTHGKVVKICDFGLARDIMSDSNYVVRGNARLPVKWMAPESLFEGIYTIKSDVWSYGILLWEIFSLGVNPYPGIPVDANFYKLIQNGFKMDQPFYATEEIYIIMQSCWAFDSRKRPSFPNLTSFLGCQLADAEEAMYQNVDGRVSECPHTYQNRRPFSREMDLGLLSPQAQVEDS

[30] = Metabolic stability in human liver microsomes assessed as intrinsic clearance; assay type: ADME, Microsome; conditions: read-out: CLH
[31] = Lipophilicity, LogD at pH 7.4 of the compound by shake flask method; assay type: physicochemical; conditions: buffer

efflux ratio at 6 h [1]: 24 | LBF [2]: 70% | Papp A→B at 6 h [3]: 9.3 ×10⁻⁶ cm/s | IC50 [4]: 170 nM | clearance [5]: 13 mL/min/kg | IC50 [6]: 3 nM
Structure (SMILES): COC(=O)N1CCN([C@H]2CC[C@H](Nc3nc(Nc4cnn(C)c4)nc4ccc(CC#N)nc34)CC2)CC1

Structure (SMILES): CC#CC(=O)N1CCC[C@H]1c1nc(-c2ccc(C(=O)Nc3ccccn3)cc2)c2c(N)nccn12 [ACALABRUTINIB]
inhibition of growth at 0.17 µM (SUD4 [7]): 2% | inhibition of growth at 0.033 µM (SUD4 [8]): -3% | inhibition of growth at 0.017 µM (OCI-Ly10 [9]): 77% | inhibition of growth at 0.003 µM (OCI-Ly10 [10]): 13% | inhibition of growth at 0.017 µM (OCI-Ly10 [11]): 71% | inhibition of growth at 1.7 µM (OCI-Ly10 [12]): 108% | inhibition of growth at 0.33 µM (OCI-Ly10 [13]): 115% | inhibition of growth at 0.003 µM (SUD4 [14]): -1% | inhibition of growth at 0.017 µM (SUD4 [15]): -1% | inhibition of growth at 0.033 µM (OCI-Ly10 [16]): 92% | inhibition of growth at 0.33 µM (SUD4 [17]): 2% | inhibition of growth at 0.17 µM (OCI-Ly10 [18]): 111% | inhibition of growth at 0.033 µM (SUD4 [19]): 2% | inhibition of growth at 0.003 µM (OCI-Ly10 [20]): 16% | inhibition of growth at 0.003 µM (SUD4 [21]): 2% | inhibition of growth at 0.033 µM (OCI-Ly10 [22]): 88% | inhibition of growth at 0.33 µM (SUD4 [23]): -1% | inhibition of growth at 3.3 µM (OCI-Ly10 [24]): 113% | inhibition of growth at 0.017 µM (SUD4 [25]): 2% | inhibition of growth at 0.17 µM (SUD4 [26]): -3%

efflux ratio at 6 h [1]: 2.6 | hepatocyte CLint [27]: 4.6 µL/min/1e6 cells | Papp A→B at 6 h [3]: 45 ×10⁻⁶ cm/s | IC50 [28]: 20 nM | IC50 [4]: 71 nM | IC50 [29]: 30 nM | microsomal CLint [30]: 33 µL/min/mg | IC50 [6]: 3 nM | logD [31]: 2.3
Structure (SMILES): CC(=O)N1CCC(n2cc(Nc3nc(OC4CCOCC4)c4nc(C)ccc4n3)cn2)CC1
